Source: patent US20190126075A1, “FOOD AND DRINK PRODUCT CONTAINING POORLY DIGESTIBLE COMPOUND AND COLONIC-HYDROGEN-GAS PRODUCING AGENT” (Kyodo Milk Industry Co., Ltd., priority 2015, published 2019)
Marks after values point to notes of the source that are not given here.

Assays:
[1] = test system: fecal bacteria; assay: H2 production in fecal incubation system, single components vs mixture of three (Example 2); format: cell-based, human; settings: 14 subjects; 0.8% solution of each component in PBS
Procedure: (§1) Twenty milliliters of an anaerobic dilution solution (a solution prepared by dissolving KH2PO4, Na2HPO4, L-cysteine hydrochloride, Tween 80, and 0.1% Resazurin in a vial, jet-injecting N2 and CO2 (80%, 20%) into the vial, and autoclaving the vial sealed with a butyl rubber stopper) was added to 5 g of each of the collected samples, and the mixture was stirred by vortexing and then centrifuged (at 1000 g for 1 min.) to remove solids such as undigested food debris. 160 μL of each of the fecal suspension supernatants harboring fecal bacteria was dispensed into an Eppendorf tube, and 40 μL of each of the prepared solutions of digestion-resistant components in PBS was added to each of the Eppendorf tubes (final concentrations of digestion-resistant components: 0.5%). The Eppendorf tubes containing a mixture of fecal suspension and digestion-resistant component were placed into vial bottles (40 mm×75 mm, 50 mL) while the lids of the tubes and bottles were left open, and a mixed gas of N2 and CO2 (79.8%, 20.2%) was jet-injected to render the Eppendorf tubes and the bottles anaerobic. The vials were sealed with butyl rubber stoppers and incubated in an incubator (at 37° C. for 24 hours). The experiments were done in duplicate per sample, with each experiment being repeated three times.
(§2) Half a milliliter of the gas in each of the vial bottles was collected in a 1.0 mL gastight syringe (produced by Hamilton Company) and analyzed by TRIlyzer (Taiyo Nippon Sanso Corporation). In this process, when concentration exceeded the detection limit, 1 mL of the sample was injected into a 50 mL vial bottle, diluted 50-fold, and subjected to concentration measurement. Before gas collection, the gas in the vial bottles was stirred five times using the syringe.
Each of maltitol, galactooligosaccharide and glucomannan was dissolved in PBS to give a 0.8% solution. Similarly, in order to prepare a mixed solution of the three components, these components were mixed at a concentration of 0.8% each, and dissolved in PBS. The control used was a PBS solution not containing any of these components.
Fecal samples from 14 human healthy adult subjects (11 male, 3 female, average aged 40.9) were used.
Fecal treatment and incubation, and H2 concentration measurement, were performed by the same procedures as in Example 1.

[2] = test system: fecal bacteria; assay: H2 production in fecal incubation system, single digestion-resistant components (Example 1); format: cell-based, human; settings: final concentration 0.5%; for subjects whose fecal samples showed a sample/control ratio of 10 or higher: 10 subjects; for ratio of the H2 production concentration in sample relative to control: 37° C. for 24 hours
Source text: Twenty-three different types of digestion-resistant components (cellulose, isomaltooligosaccharide, lactose, fructooligosaccharide, galactooligosaccharide, cellobiose, xylooligosaccharide, xylitol, sorbitol, erythritol, maltitol, mannitol, pectin, sodium alginate, glucomannan, lignin, chitin, chitosan, resistant starch, resistant dextrin, reduced resistant dextrin, kale, or young barley leaf) were each diluted with phosphate buffered saline (PBS) to adjust the concentration to 2.5% (w/v). Among these components, those which were not completely dissolved were used in a suspended state. The control used was a PBS solution not containing any of these components.
Fecal samples were collected from 10 human healthy adult subjects (7 male, 3 female, average aged 35.8), and were used within 5 hours after defecation.
as §1, §2
The ratio of the H2 production concentration in each of the samples relative to that in the control was calculated, and those sample/control ratios of 10 or higher are shaded in the table (Table 1).

4′-galactosyllactose [Galactooligosaccharide]
subjects whose fecal samples showed a sample/control H2 production concentration ratio of 2 or higher [1]: 8 of 14
subjects whose fecal samples showed a sample/control H2 production concentration ratio of 3 or higher [1]: 0 of 14
subjects whose fecal samples showed a sample/control H2 production concentration ratio of 5 or higher [1]: not in any
subjects whose fecal samples showed a sample/control ratio of 10 or higher [2]: 5 of 10
ratio of the H2 production concentration in sample relative to control ([2]; Subject No. 1 fecal sample): 5.3
ratio of the H2 production concentration in sample relative to control ([2]; Subject No. 2 fecal sample): 18.5*
ratio of the H2 production concentration in sample relative to control ([2]; Subject No. 3 fecal sample): 35.8*
ratio of the H2 production concentration in sample relative to control ([2]; Subject No. 4 fecal sample): 16.9*
ratio of the H2 production concentration in sample relative to control ([2]; Subject No. 5 fecal sample): 15.4*
ratio of the H2 production concentration in sample relative to control ([2]; Subject No. 6 fecal sample): 22.1*
ratio of the H2 production concentration in sample relative to control ([2]; Subject No. 7 fecal sample): 0.8
ratio of the H2 production concentration in sample relative to control ([2]; Subject No. 8 fecal sample): 0.8
ratio of the H2 production concentration in sample relative to control ([2]; Subject No. 9 fecal sample): 0.1
ratio of the H2 production concentration in sample relative to control ([2]; Subject No. 10 fecal sample): 5.9

OC[C@@H](O)[C@@H](O)[C@H](O)[C@H](O)CO [Mannitol, mannitol]
subjects whose fecal samples showed a sample/control ratio of 10 or higher [2]: 5 of 10
ratio of the H2 production concentration in sample relative to control ([2]; Subject No. 1 fecal sample): 2.2
ratio of the H2 production concentration in sample relative to control ([2]; Subject No. 2 fecal sample): 28.2*
ratio of the H2 production concentration in sample relative to control ([2]; Subject No. 3 fecal sample): 234.7*
ratio of the H2 production concentration in sample relative to control ([2]; Subject No. 4 fecal sample): 81.9*
ratio of the H2 production concentration in sample relative to control ([2]; Subject No. 5 fecal sample): 6.6
ratio of the H2 production concentration in sample relative to control ([2]; Subject No. 6 fecal sample): 76.2*
ratio of the H2 production concentration in sample relative to control ([2]; Subject No. 7 fecal sample): 54.3*
ratio of the H2 production concentration in sample relative to control ([2]; Subject No. 8 fecal sample): 1.7
ratio of the H2 production concentration in sample relative to control ([2]; Subject No. 9 fecal sample): 0.0
ratio of the H2 production concentration in sample relative to control ([2]; Subject No. 10 fecal sample): 3.5

OC[C@@H](O)[C@@H](O[C@H]1O[C@H](CO)[C@@H](O)[C@H](O)[C@H]1O)[C@H](O)[C@@H](O)CO [Maltitol, 4-O-α-D-glucopyranosyl-D-glucitol]
subjects whose fecal samples showed a sample/control H2 production concentration ratio of 2 or higher [1]: 9 of 14
subjects whose fecal samples showed a sample/control H2 production concentration ratio of 3 or higher [1]: 5 of 14
subjects whose fecal samples showed a sample/control H2 production concentration ratio of 5 or higher [1]: 2 of 14
subjects whose fecal samples showed a sample/control ratio of 10 or higher [2]: 6 of 10
ratio of the H2 production concentration in sample relative to control ([2]; Subject No. 1 fecal sample): 12.5*
ratio of the H2 production concentration in sample relative to control ([2]; Subject No. 2 fecal sample): 7.2
ratio of the H2 production concentration in sample relative to control ([2]; Subject No. 3 fecal sample): 386.6*
ratio of the H2 production concentration in sample relative to control ([2]; Subject No. 4 fecal sample): 22.1*
ratio of the H2 production concentration in sample relative to control ([2]; Subject No. 5 fecal sample): 2.6
ratio of the H2 production concentration in sample relative to control ([2]; Subject No. 6 fecal sample): 8.4
ratio of the H2 production concentration in sample relative to control ([2]; Subject No. 7 fecal sample): 315.5*
ratio of the H2 production concentration in sample relative to control ([2]; Subject No. 8 fecal sample): 0.8
ratio of the H2 production concentration in sample relative to control ([2]; Subject No. 9 fecal sample): 55.6*
ratio of the H2 production concentration in sample relative to control ([2]; Subject No. 10 fecal sample): 32.3*

OC[C@H]1O[C@@H](O[C@H]2[C@H](O)[C@@H](O)C(O)O[C@@H]2CO)[C@H](O)[C@@H](O)[C@H]1O (stereo partly shown) [Lactose, lactose]
subjects whose fecal samples showed a sample/control ratio of 10 or higher [2]: 4 of 10
ratio of the H2 production concentration in sample relative to control ([2]; Subject No. 1 fecal sample): 4.9
ratio of the H2 production concentration in sample relative to control ([2]; Subject No. 2 fecal sample): 9.5
ratio of the H2 production concentration in sample relative to control ([2]; Subject No. 3 fecal sample): 36.6*
ratio of the H2 production concentration in sample relative to control ([2]; Subject No. 4 fecal sample): 28.7*
ratio of the H2 production concentration in sample relative to control ([2]; Subject No. 5 fecal sample): 22.4*
ratio of the H2 production concentration in sample relative to control ([2]; Subject No. 6 fecal sample): 22.1*
ratio of the H2 production concentration in sample relative to control ([2]; Subject No. 7 fecal sample): 0.5
ratio of the H2 production concentration in sample relative to control ([2]; Subject No. 8 fecal sample): 0.7
ratio of the H2 production concentration in sample relative to control ([2]; Subject No. 9 fecal sample): 0.1
ratio of the H2 production concentration in sample relative to control ([2]; Subject No. 10 fecal sample): 7.1

O=C[C@H](O)[C@@H](O)[C@H](O[C@@H]1O[C@H](CO)[C@@H](O)[C@H](O)[C@H]1O)[C@H](O)CO [Cellobiose, cellobiose]
subjects whose fecal samples showed a sample/control ratio of 10 or higher [2]: 7 of 10
ratio of the H2 production concentration in sample relative to control ([2]; Subject No. 1 fecal sample): 25.7*
ratio of the H2 production concentration in sample relative to control ([2]; Subject No. 2 fecal sample): 37.0*
ratio of the H2 production concentration in sample relative to control ([2]; Subject No. 3 fecal sample): 67.3*
ratio of the H2 production concentration in sample relative to control ([2]; Subject No. 4 fecal sample): 76.5*
ratio of the H2 production concentration in sample relative to control ([2]; Subject No. 5 fecal sample): 8.1
ratio of the H2 production concentration in sample relative to control ([2]; Subject No. 6 fecal sample): 52.0*
ratio of the H2 production concentration in sample relative to control ([2]; Subject No. 7 fecal sample): 3.1
ratio of the H2 production concentration in sample relative to control ([2]; Subject No. 8 fecal sample): 7.5
ratio of the H2 production concentration in sample relative to control ([2]; Subject No. 9 fecal sample): 46.4*
ratio of the H2 production concentration in sample relative to control ([2]; Subject No. 10 fecal sample): 18.9*

OC[C@@H](O)[C@H](O)[C@@H](O)CO [Xylitol, xylitol]
subjects whose fecal samples showed a sample/control ratio of 10 or higher [2]: 6 of 10
ratio of the H2 production concentration in sample relative to control ([2]; Subject No. 1 fecal sample): 18.4*
ratio of the H2 production concentration in sample relative to control ([2]; Subject No. 2 fecal sample): 11.1*
ratio of the H2 production concentration in sample relative to control ([2]; Subject No. 3 fecal sample): 40.2*
ratio of the H2 production concentration in sample relative to control ([2]; Subject No. 4 fecal sample): 72.4*
ratio of the H2 production concentration in sample relative to control ([2]; Subject No. 5 fecal sample): 8.8
ratio of the H2 production concentration in sample relative to control ([2]; Subject No. 6 fecal sample): 3.2
ratio of the H2 production concentration in sample relative to control ([2]; Subject No. 7 fecal sample): 1.4
ratio of the H2 production concentration in sample relative to control ([2]; Subject No. 8 fecal sample): 1.9
ratio of the H2 production concentration in sample relative to control ([2]; Subject No. 9 fecal sample): 12.5*
ratio of the H2 production concentration in sample relative to control ([2]; Subject No. 10 fecal sample): 60.2*

OC[C@@H](O)[C@@H](O)[C@H](O)[C@@H](O)CO [Sorbitol, sorbitol]
subjects whose fecal samples showed a sample/control ratio of 10 or higher [2]: 4 of 10
ratio of the H2 production concentration in sample relative to control ([2]; Subject No. 1 fecal sample): 31.6*
ratio of the H2 production concentration in sample relative to control ([2]; Subject No. 2 fecal sample): 9.6
ratio of the H2 production concentration in sample relative to control ([2]; Subject No. 3 fecal sample): 33.0*
ratio of the H2 production concentration in sample relative to control ([2]; Subject No. 4 fecal sample): 54.8*
ratio of the H2 production concentration in sample relative to control ([2]; Subject No. 5 fecal sample): 3.4
ratio of the H2 production concentration in sample relative to control ([2]; Subject No. 6 fecal sample): 4.2
ratio of the H2 production concentration in sample relative to control ([2]; Subject No. 7 fecal sample): 68.6*
ratio of the H2 production concentration in sample relative to control ([2]; Subject No. 8 fecal sample): 1.7
ratio of the H2 production concentration in sample relative to control ([2]; Subject No. 9 fecal sample): 0.1
ratio of the H2 production concentration in sample relative to control ([2]; Subject No. 10 fecal sample): 4.5

OC[C@@H](O)[C@@H](O)CO [Erythritol, erythritol]
subjects whose fecal samples showed a sample/control ratio of 10 or higher [2]: 2 of 10
ratio of the H2 production concentration in sample relative to control ([2]; Subject No. 1 fecal sample): 12.7*
ratio of the H2 production concentration in sample relative to control ([2]; Subject No. 2 fecal sample): 27.6*
ratio of the H2 production concentration in sample relative to control ([2]; Subject No. 3 fecal sample): 3.8
ratio of the H2 production concentration in sample relative to control ([2]; Subject No. 4 fecal sample): 1.5
ratio of the H2 production concentration in sample relative to control ([2]; Subject No. 5 fecal sample): 7.1
ratio of the H2 production concentration in sample relative to control ([2]; Subject No. 6 fecal sample): 1.8
ratio of the H2 production concentration in sample relative to control ([2]; Subject No. 7 fecal sample): 4.0
ratio of the H2 production concentration in sample relative to control ([2]; Subject No. 8 fecal sample): 1.8
ratio of the H2 production concentration in sample relative to control ([2]; Subject No. 9 fecal sample): 1.0
ratio of the H2 production concentration in sample relative to control ([2]; Subject No. 10 fecal sample): 2.1
